B1: Wnt7a ligand: known activator of symmetric satellite cell divisions (protein, UniProt O00755 32-349, looked up)
Protein Wnt-7a: LGASIICNKIPGLAPRQRAICQSRPDAIIVIGEGSQMGLDECQFQFRNGRWNCSALGERTVFGKELKVGSREAAFTYAIIAAGVAHAITAACTQGNLSDCGCDKEKQGQYHRDEGWKWGGCSADIRYGIGFAKVFVDAREIKQNARTLMNLHNNEAGRKILEENMKLECKCHGVSGSCTTKTCWTTLPQFRELGYVLKDKYNEAVHVEPVRASRNKRPTFLKIKKPLSYRKPMDTDLVYIEKSPNYCEEDPVTGSVGTQGRACNKTAPQASGCDLMCCGRGYNTHQYARVWQCNCKFHWCCYVKCNTCSERTEMYTCK

Legend:
[1] = system: EGFR signaling; assay type: cell-based
[2] = system: satellite stem cells; assay: EDL myofiber culture, satellite stem cell divisions (Myf5-Cre/R26R-eYFP, wild type); assay type: cell-based, mouse; details: 42 h culture, Lapatinib 1 μM vs DMSO vehicle
Experimental: EGFR Signaling Regulates Asymmetric Satellite Stem Cell Divisions. To assess the role of EGFR in asymmetric division, the inventors cultured satellite cells in myofibers isolated from Extensor digitorum longus (EDL) muscles from Myf5-Cre/R26R-eYFP mice and performed both loss-of-function and gain-of-function experiments. Isolated myofibers were first cultured for 42 h with and without treatment with the Lapatinib, a specific inhibitor of EGFR signaling.
EDL fiber Culture and siRNA Transfection. Myofiber culture was performed as described in Dumont, N. A., et al. “Dystrophin expression in muscle stem cells regulates their polarity and asymmetric division.” Nat. Med. (2015) 21:1455-63, which is incorporated herein by reference. Briefly, EDL were carefully dissected and incubated in DMEM with 2% L-glutamine, 4.5% glucose, and 110 mg/mL sodium pyruvate (Gibco) containing 0.2% collagenase I (Sigma) for 45 min. Myofibers were isolated using gentle trituration with a glass pipet. Myofibers were cultured for 36, 42, or 72 h in DMEM containing 20% FBS (Wisent), 1% chick embryo extract (MP Biomedicals), and 2.5 ng/ml bFGF (Cedarlane). For pharmacological inhibition, Lapatinib ditosylate (1 mM in DMSO; Santa
Cruz Biotechnology), PTP1b inhibitor CAS 765317-72-4 (10 mM in DMSO; Santa Cruz Biotechnologies) was added to the culture medium for a final concentration of 1 μM or 10 μM, respectively; equal dilution of DMSO was used as vehicle control.
Transfection of satellite cells on myofibers was performed using lipofectamine RNAimax (Life Technologies) and validated Smartpool siRNAs for EGFR, Aurka, or scramble (SCR) (Dharmacon). Two transfections were performed at 4 h and 16 h after isolation of the myofibers as described in Le Grand, et al. (2009) Wnt7a activates the planar cell polarity pathway to drive the symmetric expansion of satellite stem cells. Cell Stem Cell 4, pp 535-547, which is incorporated herein by reference. Knockdown efficiencies of the siRNA were validated in myoblasts by western blot and qRT-PCR.

[3] = system: satellite cell divisions; assay: FDB myofiber screening method validation (YFP(-) divisions); assay type: cell-based, mouse; details: control 62% (Wnt7a experiment), control 45% (EGF / PTP1b experiment)
Text: EGFR pathway activators may be identified in a method of screening potential activators. The method includes visualizing isolated, cultured, and stained Flexor Digitorum Brevis (FDB) myofibers from Myf5-Cre/ROSA26-YFP mice in a plurality of Z-stack planes to create a projection image. Muscle satellite cells are identified in the projection image based on Pax7 expression. Of the identified muscle satellite cells: (i) satellite stem cells are identified based on the absence of YFP expression, and (ii) committed satellite progenitor cells are identified based on yellow fluorescence protein (YFP) expression. A potential EGFR pathway activator is administered to the FDB myofibers. The number of symmetric divisions of satellite myogenic cells, identified by the production of two YFP(+) satellite cells, are counted; the number of symmetric satellite stem cell divisions, identified by the production of two YFP(−) satellite cells, are counted; and the number of asymmetric satellite cell divisions, identified by the production of one YFP(+) and one YFP(−) satellite cell, are counted. The potential EGFR pathway activator is identified as an EGFR pathway activator when the percent of YFP(−) divisions that are asymmetric divisions is greater than the corresponding percent in a control sample. The expression “YFP(−) divisions” refers to all cell divisions where one of the daughter cells is YFP(−).
Identification of EGFR pathway activators. Flexor Digitorum brevis (FDB) fibers were isolated from Myf5-Cre/Rosa-YFP mice and digested in 0.25% Collagenase Type I (Sigma) in DMEM (Dulbecco's modified Eagle's medium; high glucose, L-glutamine with 110 mg/ml sodium pyruvate) for 2.5-3 h. Myofibers were dissociated using gentle trituration with a glass pipette.
Myofibers are cultured at 37° C., 5% CO2 for 42 h in myofiber culture media (DMEM supplemented with 20% FBS(Wisent), 1% Chicken Embryo extract (MP Biomediacals), 1% Penicillin/Streptomycin (Cederlane) and 2.5 ng/ml basic Fibroblast Growth Factor (Cedarlane).
Myofibers are first fixed in 2% Paraformaldehyde (PFA) for 5 mins. Myofibers are blocked for 1-2 h in 1% Bovine Serum Albumin, 0.5% TritonX-100, 5% HS and 0.01% Sodium Azide. Primary antibodies are applied in blocking solution for 2 h at room temperature or at 4° C. overnight. Myofibers are washed with PBS and stained with appropriate fluorescently labeled secondary antibodies (Alexa Fluor 488, 546) for 1 hat room temperature. Following washing with PBS, fiber nuclei are stained with DAPI for 5 min. The following antibodies are used: mouse anti-Pax7 (Developmental Studies Hybridoma Bank (DSHB)), chicken anti-GFP (cat. no. ab13970, Abcam).
Satellite cells are focused based on Channel 3 (DAPI) staining. Autofocus is performed by sampling seven (7) z-stacks taken at […] intervals for an extended depth of field of 85.3 μm.
Z-stack images were consolidated to create a projection image with all satellite cells in focus. Image acquisition of a projection image for analysis was created from seven (7) Z-stack images taken at 6.5 μm intervals, for an extended depth of field of 45.5 μm at 200 (Objective 20×) magnification. The projection direction was centered, where the median stacks fall within the center of each myofiber. […]
Potential satellite cells were first identified based on Channel 1 (Pax7) signal, and separated from other satellite cells based on intensity of fluorescence between cells. […]

| Molecule | EGFR signaling at the concentration used in the screen [1] | decrease in the rate of asymmetric divisions ([2]; FIG. 1A) [%] | increase in the number of satellite stem cells ([2]; FIG. 1B) [%] | percentage of YFP(-) divisions that were symmetric divisions [3] [%] |
| --- | --- | --- | --- | --- |
| CS(=O)(=O)CCNCc1ccc(-c2ccc3ncnc(Nc4ccc(OCc5cccc(F)c5)c(Cl)c4)c3c2)o1 [Lapatinib, reference compound] | completely abolishes EGFR signaling | 83 | 71 | – |
| B1 | – | – | – | 78 |

Source: patent US20230114123A1, “METHOD OF STIMULATING ASYMMETRIC DIVISION OF SATELLITE STEM CELLS” (Ottawa Hospital Research Institute, priority 2017, published 2023)
